Reference: patent US20240216444A1, “DESIGNED BACTERIAL COMPOSITIONS” (Seres Therapeutics, Inc., priority 2015, published 2024)
Read-outs that look alike come from different tables or passages of the source.

Assays:
[1] = Indole spot test of supernatants on paper soaked with Indole Reagent; conditions: 4 μL spotted on paper soaked with Indole Reagent
[2] = system: HDAC enzymes (HeLa nuclear extract); assay: HDAC-Glo I/II assay with serial dilutions of SCFAs; type: biochemical; conditions: for HDAC inhibition activity at the highest tested concentration: 3.75 mM
Method: For this experiment, the HeLa nuclear extract provided in the kit was used as the source of HDAC enzymes. […] In this assay, deacetylation of the provided substrate by HDACs results in a luminescence signal that is detected with a suitable plate reader (Spectramax m5). HDAC inhibition decreases the luminescence signal compared to the no inhibitor control. The experiment was carried out according to the manufacturer's instructions as follows: 50 μL of HeLa nuclear extract diluted 1:3000 in assay buffer was mixed with 50 μL of inhibitor solution (serial dilutions of SCFAs in assay buffer) and incubated for 30 minutes. 100 μL of developer solution were added to each well, and luminescence was measured after 45 minutes of incubation at room temperature.

[3] = system: bile salt hydrolase (BSH) activity on conjugated bile acids; assay: LC-MS screen for bile salt hydrolase (BSH) activity; conditions: for BSH gCA: substrate gCA; for BSH gCDCA: substrate gCDCA; for BSH t-aMCA: substrate t-aMCA; for BSH t-bMCA: substrate t-bMCA; for BSH tCA: substrate tCA; for BSH tCDCA: substrate tCDCA
Method: To conduct the assay, briefly, bacteria were grown on permissive agar media plates for 24 to 48 hours to generate sufficient biomass to carry out assays. The bacterial lawns were resuspended in PBS to create a homogenous suspension that was then used for the BSH assay. To assay for BSH activity, bacterial suspensions were incubated with two separate mixtures of four distinct conjugated bile acids, each at concentration of 150 μg/ml, for 4 hours at 37° C. under anaerobic conditions. The reaction mixture was then extracted with an equal volume of acetonitrile, spun down to pellet bacteria and the supernatant filtered through a 0.2 μM filter to generate a sample for LC-MS analysis. Bile acids were determined using an Agilent 1260 HPLC coupled to a Bruker Compact qTOF MS. Samples were run on a bidentate C18 column using an acetonitrile:water buffer system to separate bile acids which were then ionized in negative mode and identified using a qTOF-MS. BSH activity was determined by the formation of deconjugated bile acid products that were verified by comparison to known standards and quantified, if necessary, using standard curves.

[4] = system: C. difficile carbon sources; assay: Carbon source utilization, 87 carbon sources in three base media, OD600 and acid production (Example 3B); type: cell-based; parameters: key: “+” and “w” refer to “positive” and “weak” utilization of the carbon source, respectively; “+” and “w” refer to “positive” and “weak” utilization of the carbon source, respectively
From the text: Three C. difficile strains and 12 non-C. difficile bacterial strains were profiled using a panel of carbon sources. As used herein, unless otherwise indicated, carbon sources includes all sources tested as growth substrates in the experiments herein. The three C. difficile strains were Clostridium difficile ATCC 9689, Clostridium difficile ATCC 43593, and Clostridium difficile ATCC 43255, all of which are available from the American Type Culture Collection (ATCC).
Growth of the strains was tested on 87 different carbon sources in a 96-well plate format. The panel contained 34 carbon sources reported to be utilized by C. difficile in the literature (Hafiz and Oakley. 1976 J Med Microbiol 9:129-36; Wilson and Perini. 1988 Infection and Immunity 56:2610-14; Bergey and Holt. Bergey's Manual of Determinative Bacteriology. Baltimore: Williams & Wilkins, 1994; Sebaihia et al. 2006 Nature Genetics 38:779-786) including amino acids, mono-, di-, tri- and polysaccharides, glucoside and sugar alcohols. Carbon sources were added at 0.5% into three different base media (Base medium 1 SSNC composition: beef extract 1 g/L, yeast extract 2 g/L, bacto soytone 6 g/L, NaCl 4 g/L, KH2PO4 5.44 g/L, MgSO4 2 mM, CaCl2 1 mM, MnCl2 0.1 mM, cysteine hydrochloride 0.25 g/L, hemin 10 mg/L, menadione 1 mg/L, MOPS 6.3 g/L, pH 7; Base medium 2 SPOSCR composition: beef extract 1 g/L, yeast extract 2 g/L, bacto soytone 6 g/L, NaCl 4 g/L, KH2PO4 5.44 g/L, MgSO4 2 mM, CaCl2) 1 mM, MnCl2 0.1 mM, cysteine hydrochloride 0.25 g/L, hemin 10 mg/L, menadione 1 mg/L, MOPS 8.4 g/L, NaHCO3 0.4%, pH 7; Base medium 3 YCFA: casitone 10 g/L, yeast extract 2.5 g/L, cysteine hydrochloride 1 g/L, hemin 10 mg/L, ATCC vitamin solution 10 mL/L, ATCC trace element solution 10 mL/L, K2HPO4 0.45 g/L, KH2PO4 0.45 g/L, (NH4)2SO4 0.9 g/L, MgSO4×7H2O 90 mg/L, CaCl2) 90 mg/L, acetic acid 33 mM, propionic acid 9 mM, isobutyric acid 1 mM, isovaleric acid 1 mM, valeric acid 1 mM, pH 7).
Positive growth was scored by measuring optical density at 600 nm and comparing it to growth in base medium without an added carbon source. For two, base media acid production was also scored by measuring optical density at 558 nm of pH-indicator phenol red mixed with spent medium from each culture.

[5] = system: 7α-dehydroxylation of cholic acid and chenodeoxycholic acid; assay: LC-MS screen for 7α-dehydroxylation (7α-OH) activity; type: biochemical
[6] = system: HSDH activity (7-, 3- or 12-hydroxyl groups) on cholic, chenodeoxycholic, deoxycholic and lithocholic acid; assay: LC-MS screen for hydroxysteroid dehydrogenase (HSDH) activity; type: biochemical
[7] = LC-MS, substrate chenodeoxycholic acid

## Cc1c[nH]c2ccccc12 [3-methyl-indole]
[1]
  colour in indole spot test: purple spots

## c1ccc2[nH]ccc2c1 [Indole, indole]
[1]
  colour in indole spot test: light blue color

## CC(O)C(=O)O (centres unmarked) [Lactate]
[2]
  HDAC inhibition activity at the highest tested concentration: minimal HDAC inhibition activity

## CC(=O)O [acetate]
[2]
  HDAC inhibition activity at the highest tested concentration: minimal HDAC inhibition activity

## O=C(O)CCCc1c[nH]c2ccccc12 [indole-3-butyric acid]
[1]
  colour in indole spot test: purple spots

## O=C(O)CCc1c[nH]c2ccccc12 [indole-3-propionic acid]
[1]
  colour in indole spot test: purple spots

## CCC(=O)O [propionate]
[2]; HeLa nuclear extract, HDAC-Glo I/II, read-out: HDAC inhibition IC50
  IC50: 2400 µM

## NCCc1c[nH]c2ccccc12 [tryptamine]
[1]
  colour in indole spot test: purple spots

## Blautia producta
[3]
  BSH gCA: −
  BSH gCDCA: −
  BSH t-aMCA: −
  BSH t-bMCA: −
  BSH tCA: −
  BSH tCDCA: −
[4]; Apple pectin
  utilization of carbon source Apple pectin: +
[4]; Citrus pectin
  utilization of carbon source Citrus pectin: +
[4]; NAG (N-acetylglucosamine)
  utilization of carbon source NAG: +
[4]; alanine
  utilization of carbon source alanine: +
[4]; asparagine
  utilization of carbon source asparagine: +
[4]; cellobiose
  utilization of carbon source cellobiose: +
[4]; cysteine
  utilization of carbon source cysteine: w
[4]; dulcitol
  utilization of carbon source dulcitol: +
[4]; esculin
  utilization of carbon source esculin: +
[4]; formate
  utilization of carbon source formate: +
[4]; fructose
  utilization of carbon source fructose: +
[4]; glucose
  utilization of carbon source glucose: +
[4]; glutamine
  utilization of carbon source glutamine: w
[4]; glycochenodeoxycholate
  utilization of carbon source glycochenodeoxycholate: w
[4]; mannitol
  utilization of carbon source mannitol: +
[4]; mannose
  utilization of carbon source mannose: +
[4]; melezitose
  utilization of carbon source melezitose: +
[4]; oxalate
  utilization of carbon source oxalate: w
[4]; polygalacturonate
  utilization of carbon source polygalacturonate: +
[4]; rhamnose
  utilization of carbon source rhamnose: +
[4]; ribose
  utilization of carbon source ribose: +
[4]; salicin
  utilization of carbon source salicin: +
[4]; serine
  utilization of carbon source serine: +
[4]; sialic acid
  utilization of carbon source sialic acid: +
[4]; sorbitol
  utilization of carbon source sorbitol: +
[4]; sucrose
  utilization of carbon source sucrose: +
[4]; taurochenodeoxycholate
  utilization of carbon source taurochenodeoxycholate: w
[4]; threonine
  utilization of carbon source threonine: w
[4]; trehalose
  utilization of carbon source trehalose: +
[4]; xylitol
  utilization of carbon source xylitol: +
[4]; xylose
  utilization of carbon source xylose: +
[5]; LC-MS, substrate CA
  7a Dehydrox CA: −
[5]; LC-MS, substrate CDCA
  7a Dehydrox CDCA: −
[6]; LC-MS
  HSDH 3a: −
  HSDH 7a: −
  HSDH 12a: −

## Blautia_producta
[5]; [7]
  7a Dehydrox CDCA: −
[5]; LC-MS, substrate cholic acid
  7a Dehydrox CA: −
[6]; LC-MS, 3a-HSDH
  HSDH 3a: −
[6]; LC-MS, 7a-HSDH
  HSDH 7a: −
[6]; LC-MS, 12a-HSDH
  HSDH 12a: −

## Clostridium butyricum
[5]
  7a Dehydrox CA: −
  7a Dehydrox CDCA: −
[6]
  HSDH 3a: −
  HSDH 12a: −

## Clostridium paraputrificum
[3]
  BSH gCA: + (‘+’ indicates greater than 50-fold increase in levels of product bile acid, suggesting strong activity)
  BSH gCDCA: + (‘+’ indicates greater than 50-fold increase in levels of product bile acid, suggesting strong activity)
  BSH t-aMCA: + (‘+’ indicates greater than 50-fold increase in levels of product bile acid, suggesting strong activity)
  BSH t-bMCA: + (‘+’ indicates greater than 50-fold increase in levels of product bile acid, suggesting strong activity)
  BSH tCA: + (‘+’ indicates greater than 50-fold increase in levels of product bile acid, suggesting strong activity)
  BSH tCDCA: + (‘+’ indicates greater than 50-fold increase in levels of product bile acid, suggesting strong activity)

## Clostridium sp_7_2_43FAA
[5]; [7]
  7a Dehydrox CDCA: −
[5]; LC-MS, substrate cholic acid
  7a Dehydrox CA: −
[6]; LC-MS, 3a-HSDH
  HSDH 3a: +/− (‘+/−’ indicates ≤50-fold change in product bile acid levels, suggesting weak activity)
[6]; LC-MS, 7a-HSDH
  HSDH 7a: + (‘+’ indicates greater than 50-fold increase in levels of product bile acid, suggesting strong activity)
[6]; LC-MS, 12a-HSDH
  HSDH 12a: −

## Clostridium symbiosum
[3]
  BSH gCA: +/− (‘+/−’ indicates ≤50-fold change in product bile acid levels, suggesting weak activity)
  BSH gCDCA: + (‘+’ indicates greater than 50-fold increase in levels of product bile acid, suggesting strong activity)
  BSH t-aMCA: −
  BSH t-bMCA: −
  BSH tCA: −
  BSH tCDCA: +/− (‘+/−’ indicates ≤50-fold change in product bile acid levels, suggesting weak activity)
[5]; [7]
  7a Dehydrox CDCA: −
[5]; LC-MS, substrate cholic acid
  7a Dehydrox CA: −
[6]; LC-MS, 3a-HSDH
  HSDH 3a: +/− (‘+/−’ indicates ≤50-fold change in product bile acid levels, suggesting weak activity)
[6]; LC-MS, 7a-HSDH
  HSDH 7a: + (‘+’ indicates greater than 50-fold increase in levels of product bile acid, suggesting strong activity)
[6]; LC-MS, 12a-HSDH
  HSDH 12a: −

## Clostridium_glycolicum
[3]
  BSH gCA: + (‘+’ indicates greater than 50-fold increase in levels of product bile acid, suggesting strong activity)
  BSH gCDCA: + (‘+’ indicates greater than 50-fold increase in levels of product bile acid, suggesting strong activity)
  BSH t-aMCA: + (‘+’ indicates greater than 50-fold increase in levels of product bile acid, suggesting strong activity)
  BSH t-bMCA: + (‘+’ indicates greater than 50-fold increase in levels of product bile acid, suggesting strong activity)
  BSH tCA: + (‘+’ indicates greater than 50-fold increase in levels of product bile acid, suggesting strong activity)
  BSH tCDCA: + (‘+’ indicates greater than 50-fold increase in levels of product bile acid, suggesting strong activity)

## Clostridium_sordellii
[3]
  BSH gCA: + (‘+’ indicates greater than 50-fold increase in levels of product bile acid, suggesting strong activity)
  BSH gCDCA: + (‘+’ indicates greater than 50-fold increase in levels of product bile acid, suggesting strong activity)
  BSH t-aMCA: + (‘+’ indicates greater than 50-fold increase in levels of product bile acid, suggesting strong activity)
  BSH t-bMCA: + (‘+’ indicates greater than 50-fold increase in levels of product bile acid, suggesting strong activity)
  BSH tCA: + (‘+’ indicates greater than 50-fold increase in levels of product bile acid, suggesting strong activity)
  BSH tCDCA: + (‘+’ indicates greater than 50-fold increase in levels of product bile acid, suggesting strong activity)
[5]; [7]
  7a Dehydrox CDCA: −
[5]; LC-MS, substrate cholic acid
  7a Dehydrox CA: −
[6]; LC-MS, 3a-HSDH
  HSDH 3a: +/− (‘+/−’ indicates ≤50-fold change in product bile acid levels, suggesting weak activity)
[6]; LC-MS, 7a-HSDH
  HSDH 7a: −
[6]; LC-MS, 12a-HSDH
  HSDH 12a: −
